Consider one molecule from patent US20240316023A1, “BENEDIN, PIPERIDINE, 2-BENZHYDRYL-3-HYDROXY-N-METHYL-, HYDROCHLORIDE AND DERIVATIVES THEREOF FOR USE IN TREATING KLEINE-LEVIN SYNDROME” (priority 2021, published 2024).

Assay [1] has as its target T1, M2 (h) (antagonist radioligand) (Homo sapiens, UniProt P08172).
T1 construct: CEREP (Eurofins, France), contract panel
T1 sequence (P08172 1-466): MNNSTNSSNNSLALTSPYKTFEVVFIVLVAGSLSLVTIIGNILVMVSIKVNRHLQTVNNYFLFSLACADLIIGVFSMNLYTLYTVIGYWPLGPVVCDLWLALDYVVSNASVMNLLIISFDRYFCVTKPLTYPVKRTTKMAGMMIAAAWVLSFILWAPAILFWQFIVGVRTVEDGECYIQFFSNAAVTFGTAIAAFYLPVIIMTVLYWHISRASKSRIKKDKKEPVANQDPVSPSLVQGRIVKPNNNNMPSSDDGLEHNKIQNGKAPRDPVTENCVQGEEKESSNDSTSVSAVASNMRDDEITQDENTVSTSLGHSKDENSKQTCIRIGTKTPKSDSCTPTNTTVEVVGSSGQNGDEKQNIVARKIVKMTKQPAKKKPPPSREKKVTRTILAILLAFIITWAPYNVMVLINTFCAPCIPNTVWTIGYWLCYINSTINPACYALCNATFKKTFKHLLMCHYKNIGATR
In words: Radioligand binding panel (Eurofins/CEREP), M2. The conditions noted are these: 10^−5 M; % inhibition of control specific binding; read-out: % Inhibition at 10^−5M Benedin. The procedure:
Benedin was tested at 10^−5 M, calculated as a % inhibition of control specific binding of a radioactively labeled ligand specific for each target.
This binding profile panel was broadly defined with roughly an equal number of selective, central and peripheral therapeutically relevant targets, including native animal tissues, radioligands and specific enzymes involved in cell cycle regulation in accordance with Eurofins Standard Operating Procedure.
For radioligand binding experiments, the half maximal inhibitory concentration (IC50) and the half maximal effective concentration (EC50) values were determined (via computer software) by nonlinear regression analysis of the competition curves using Hill equation curve fitting. The inhibition constants (Ki) were calculated using the Cheng-Prusoff equation (Ki=IC50/(1+(L/KD)), where L is the concentration of radioligand in the assay, and KD is the affinity of the radioligand for the receptor.^60
The results are expressed as a % control specific binding ([measured specific binding/control specific binding]×100) and as a % inhibition of control specific binding (100−[(measured specific binding/control specific binding)×100] obtained in the presence of the test compounds. […]

Assay [2] has as its target RXFP4 (h) (agonist radioligand) (Homo sapiens, UniProt Q8TDU9). The experiment in a line: GPCR Biosensor cAMP Hunter assay, RXFP4. It counts as cell-based. As to the method: Benedin is found to weakly bind with RXFP4 and RXFP3 receptors (Study FR095-0024749-Q Eurofins/leadHunter Jun. 25, 2021; unpublished data) (Table 2).
In these assays' compounds were tested in agonist and antagonist mode with the GPCR Biosensor Assays and match to this design:
1. cAMP Hunter cell lines were expanded from freezer stocks according to standard procedures.
2. Cells were seeded in a total volume of 20 μL into white walled, 384-well microplates and incubated at 37° C. for the appropriate time prior to testing.
3. cAMP modulation was determined using the DiscoverX HitHunter CAMP XS+assay.
1. For agonist determination, cells were incubated with sample in the presence of EC80 forskolin to induce response.
2. Media was aspirated from cells and replaced with 15 μL 2:1 HBSS/10 mM Hepes: CAMP XS+Ab reagent. […]
2. Microplates were read following signal generation with a PerkinElmer Envision™ instrument for chemiluminescent signal detection.
5. For Gi agonist mode assays, percentage activity is calculated using the following formula: % Activity=100%×(1−(mean RLU of test sample-mean RLU of MAX control)/(mean RLU of vehicle control−mean RLU of MAX control)).
8. For Gi antagonist or negative allosteric mode assays, percentage inhibition is calculated using the following formula: % Inhibition=100%×(mean RLU of test sample−mean RLU of EC80 control)/(mean RLU of forskolin positive control−mean RLU of […]

Chain of RXFP4 (h) (agonist radioligand) (Q8TDU9 whole entry): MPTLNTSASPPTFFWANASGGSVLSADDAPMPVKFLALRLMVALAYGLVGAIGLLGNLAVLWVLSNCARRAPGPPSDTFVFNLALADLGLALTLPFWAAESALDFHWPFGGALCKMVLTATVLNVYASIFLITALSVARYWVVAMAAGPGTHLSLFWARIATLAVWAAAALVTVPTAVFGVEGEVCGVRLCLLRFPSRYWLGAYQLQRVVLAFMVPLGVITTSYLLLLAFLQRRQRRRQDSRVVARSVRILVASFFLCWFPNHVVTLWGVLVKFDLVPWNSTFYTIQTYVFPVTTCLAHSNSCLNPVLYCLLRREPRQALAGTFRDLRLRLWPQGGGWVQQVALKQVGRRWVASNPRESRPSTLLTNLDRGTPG

A word on the inhibition: it is the percentage by which the read-out fell short of the control. In the case of `CN1CCCC(O)C1C(c1ccccc1)c1ccccc1` (stereo not drawn) [Benedin, 2-benzhydryl-3-hydroxy-N-methyl-piperidine], the inhibition at 10 µM in assay [1] turned out to be 65%; in assay [2] (10^−5 M, read-out: % Inhibition at 10^−5M Benedin), 26.3%. In assay [2], the “% Inhibition at 10^−5M Benedin” value is on record as “weakly bind”.
